Data as given in patent publication US8796241B2, “Therapy of tumors and infectious agents deficient in methylthioadenosine phosphorylase” (priority 2007, dated 2014).

What was measured:
MTAP(+) HF cells [1] = experiment: Coculture of HF and A549-ouaR cells, clonogenic assay; assay type: cell-based, human; settings: addition of 5′-dAdo to DAP
Method: (§1) Cell viability of adherent cell types was measured by clonogenic assay as follows: after releasing cells with trypsin and removing a portion of the cell suspension for Coulter counting, the remainder of the cell suspension was plated in serial dilutions in growth medium, without drugs. After a period sufficient for clones to reach a size visible by eye (usually 2 to 3 weeks), clones were stained with crystal violet in a saline/methanol solution. Dishes that had fewer than 100 clones were deemed suitable for counting. From these counts and from the dilution factors, the approximate number of viable cells, in the parent treatment dishes, was calculated. […] In clonogenic assays, clone size was often variable, especially after treatment with toxic drugs. Moreover, many of the very small clones may have arisen from cells detached during the weeks of incubation. […] Cloning efficiency for healthy, growing A549 cells was about 50%; for HF cells, efficiency was quite variable, ranging from 25 to 75% (perhaps because the HF cell stock varied, from experiment to experiment, in passage number).
HF and A549-ouaR (a ouabain-resistant derivative of the human lung carcinoma cell line A549, isolated by Applicants) cells were cultured together in a medium containing DAP, and with or without 5′-dAdo. After 3 days, cultures were trypsinized and serially diluted into fresh medium for clonogenic assays. Some dishes were treated with 0.1 μM ouabain to kill HF cells and permit easy visualization of surviving A549-ouaR clones. Initial viable cells: HF cells, 11,000; A549-ouaR cells, 40,000.

MTAP(+) HF cells [2] = experiment: Clonogenic assay of HF cells; assay type: cell-based, human; settings: 30 μM 5′-dAdo, 2 μM F-Ade, 3 days
Method: as §1
• B. F-Ade was added to cultures of MTAP(+) HF cells, with or without 5′-dAdo, for 3 days. Cultures were then trypsinized and serially diluted for clonogenic assay. • Initial number of viable cells per dish: 45,000 • Viable cells after 3 days shown below:
• HF cells were plated, and after they had adhered to the substrate, medium was changed to methionine-free medium, with 10% dialyzed serum. • Initial Coulter count: 73,000*; viable cells: 88,000 • After 3 days in methionine-free medium, with or without L-ethionine (Eth) or MTA: […]

[3] = tested on: MTAP(+) HT29 colon carcinoma cells; experiment: Coulter counts of HT29 cultures; assay type: cell-based, human; settings: Example 12
Method: For adherent cell types, cell numbers were determined periodically by releasing cells with trypsin (dead cells that were no longer adherent were removed by two prior rinses of the culture dish) and placing a portion of the resulting cell suspension in a Coulter counter. For cell types that grow in suspension, portions of the culture were counted directly, without trypsin treatment. Coulter counts of cells from each dish were done twice, and almost all experiments were done in duplicate. In the presentation of results, raw data for Coulter counts is given in some cases, while in others, counts have been rounded off to two to three significant figures. (Background Coulter counts—i.e., counts of diluent alone—were insignificant.)
• 5′-dAdo was added to cultures of MTAP(+) HT29 colon carcinoma cells for one day. 5-fluorouracil (FU) was then added and 4 days later cultures were trypsinized, thoroughly dispersed into mostly single cells by vigorous pipetting, and counted. • Initial Coulter count at time of addition of FU: 46,000

[4] = tested on: MTAP(+) hematopoietic cell progenitors; experiment: Assay of colony-forming cells from mouse bone marrow; assay type: cell-based; settings: 5′-dAdo at doses as low as 15 μM
From the text: Method: The procedure for assay of colony-forming cells from mouse bone marrow was similar to methods described in the literature (see e.g., B. A. Teicher et al, Cancer Research, 47:513-518, 1987). In brief, cells were flushed from the femurs of Swiss mice, counted, and seeded into six-well tissue culture plates with supplemented McCoy's 5A medium, 15% FBS, 10 to 20% L929-cell conditioned medium as a source of colony-stimulating activity (L929 is MTAP-negative), 0.3% agar, and penicillin/streptomycin (op. cit. B. A. Teicher et al). Cells were seeded at two different densities: 50,000 and 250,000 cells per well. Control wells contained either no drugs, or adenine at 15 or 30 μM, or 5′-deoxyadenosine (5′-dAdo) at 15, 30, or 45 μM. Treatment wells contained 6-methylpurine (MeP) at 5 or 15 μM, 5′-deoxyadenosine (5′-dAdo) at 15 or 30 μM, and adenine at 15 or 30 μM, in various combinations. After eight days of incubation at 37° C. in a humidified 5% CO2 atmosphere, wells were fixed by the addition of 1 ml of 5% glutaraldehyde. Photographs were taken of a randomly selected portion of each well, as viewed (at fixed magnification) through a Nikon inverted microscope equipped with a camera.

MTAP-negative cell lines = experiment: Applicants' tissue culture experiments on MTAP-negative cell lines (summary statements); assay type: cell-based, human; mouse; settings: L1210, HL-60, K-562, MCF7, MDA-MB-231, A549, PANC-1

In the case of `C[C@H]1O[C@@H](n2cnc3c(N)ncnc32)[C@H](O)[C@@H]1O` [5′-dAdo, 5′-deoxyadenosine], the “protection of HF cells from DAP in coculture” value (MTAP(+) HF cells [1]) is reported as “protected”, the “blocking of F-Ade toxicity in HF cells” value (MTAP(+) HF cells [2]) is reported as “effectively blocks” and the “blocking of FU toxicity in MTAP(+) HT29 cells” value [3] is reported as “blocked”. The “blocking of MeP toxicity to murine hematopoietic progenitors” value [4] was “effectively blocked” and the “protection against the toxicity of adenine and/or methionine antagonists” value (MTAP-negative cell lines) was “inability”.
